From patent US9023865B2, “Compounds that are ERK inhibitors” (Merck Sharp & Dohme Corp., priority 2011, dated 2015) come the findings set out here.

Chain of Active Human ERK2 (hERK2) (P28482 whole entry): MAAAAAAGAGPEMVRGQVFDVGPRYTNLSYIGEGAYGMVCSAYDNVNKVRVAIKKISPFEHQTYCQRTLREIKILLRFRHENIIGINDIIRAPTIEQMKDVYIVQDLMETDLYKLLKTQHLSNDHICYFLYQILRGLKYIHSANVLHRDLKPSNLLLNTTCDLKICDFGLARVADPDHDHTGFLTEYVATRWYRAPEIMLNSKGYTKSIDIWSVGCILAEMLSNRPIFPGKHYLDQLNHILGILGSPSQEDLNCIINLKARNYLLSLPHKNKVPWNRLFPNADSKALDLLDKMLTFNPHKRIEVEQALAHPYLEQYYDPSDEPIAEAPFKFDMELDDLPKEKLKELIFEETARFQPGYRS

This experiment concerns the target Active Human ERK2 (hERK2) (Homo sapiens (Human), UniProt P28482). The experiment is described as follows: Active Human ERK2 (hERK2) Activity Assay (IMAP-FP). In kind it is biochemical. The following applies: phosphorylated active hERK2, 30 μM ATP; average; read-out: ERK 2 Human average IC50. The procedure, abridged:
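Reaction contains 0.5 nM activated hERK2, 900 nM unlabeled plus 80 nM labeled peptide and 30 μM ATP, run 60 min. Quenched with IMAP binding beads in buffer with 24 mM NaCl; fluorescence polarization read after 60 min binding equilibration.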
As for `Cc1cc(-c2n[nH]c3cc(NC(=O)N[C@H](c4ccccc4)[C@@H]4CCCO4)ncc23)ccn1` [Example 552], the concentration for half-maximal inhibition (IC50) turned out to be 23.8 nM.

Consider `Cc1cc(-c2n[nH]c3cc(NC(=O)N[C@@H](c4ccccc4)[C@H]4CCCO4)ncc23)ccn1` [Example 553], for which the IC50 came to 0.26 nM. Take `Cc1cc(-c2n[nH]c3cc(NC(=O)N[C@@H](c4ccccc4)[C@@H]4CCCO4)ncc23)ccn1` [Example 554]: the half-inhibitory concentration (IC50) amounted to 0.262 nM. To `Cc1cc(-c2n[nH]c3cc(NC(=O)N[C@H]4[C@H](c5ccccc5C)CN(C)[C@H]4C)ncc23)ccn1` [Example 555] belongs 0.426 nM; to `Cc1cc(-c2n[nH]c3cc(NC(=O)NC(C)c4nnco4)ncc23)ccn1` (stereo not drawn) [Example 556], 232 nM; to `CN1C[C@@H](NC(=O)Nc2cc3[nH]nc(-c4ccc(F)cc4)c3cn2)[C@H](c2ccccc2)C12COC2` [Example 557], 1.86 nM. In the case of `C[C@@H](NC(=O)Nc1cc2[nH]nc(CC#N)c2cn1)c1ccccc1` [Example 559, (R)-1-(3-(cyanomethyl)-1H-pyrazolo[4,3-c]pyridin-6-yl)-3-(1-phenylethyl)urea], the IC50 came out at 14.5 nM. To `C[C@@H](NC(=O)Nc1cc2[nH]nc(CS(C)(=O)=O)c2cn1)c1ccccc1` [Example 560] belongs 81.7 nM; to `C[C@@H](NC(=O)Nc1cc2[nH]nc(CNCC(F)(F)F)c2cn1)c1ccccc1` [Example 561], 15 nM. The figure for `C[C@@H](NC(=O)Nc1cc2[nH]nc(CNCC(F)F)c2cn1)c1ccccc1` [Example 562] is 25.3 nM; for `C[C@@H](NC(=O)Nc1cc2[nH]nc(C(N)C(F)(F)F)c2cn1)c1ccccc1` (stereo partly drawn) [Example 563, 1-(3-(1-amino-2,2,2-trifluoroethyl)-1H-pyrazolo[4,3-c]pyridin-6-yl)-3-((R)-1-phenylethyl)urea] it is 251 nM.

Turning to `CNC(c1n[nH]c2cc(NC(=O)N[C@H](C)c3ccccc3)ncc12)C(F)(F)F` (stereo partly drawn) [Example 564, 1-((R)-1-phenylethyl)-3-(3-(2,2,2-trifluoro-1-(methylamino)ethyl)-1H-pyrazolo[4,3-c]pyridin-6-yl)urea], the IC50 amounted to 50 nM.

In the case of `Cc1cc(-c2n[nH]c3cc(NC(=O)NC(CS(C)(=O)=O)c4ccccc4)ncc23)ccn1` (stereo not drawn) [Example 566], the IC50 was found to be 0.313 nM. `Cc1cc(-c2n[nH]c3cc(NC(=O)N[C@H]4CN(C)[C@@H](C(F)F)[C@@H]4c4ccccc4)ncc23)ccn1` [Example 567]: the concentration for half-maximal inhibition (IC50) was 0.441 nM. Turning to `Cc1cc(-c2n[nH]c3cc(NC(=O)N[C@@H]4[C@@H](c5ccccc5)CN(C)[C@@H]4C)ncc23)ccn1` [Example 568], the half-inhibitory concentration (IC50) was found to be 0.479 nM. Regarding `Cc1cc(-c2n[nH]c3cc(NC(=O)N[C@H]4CN(C)[C@H](C(F)F)[C@@H]4c4ccccc4)ncc23)ccn1` [Example 569], the IC50 was 1.48 nM.

`CSC[C@@H](NC(=O)Nc1cc2[nH]nc(-c3ccnc(C)c3)c2cn1)c1ccccc1` [Example 570]: the IC50 turned out to be 0.257 nM. With `Cc1cc(-c2n[nH]c3c(Cl)c(NC(=O)N[C@H](C)c4ccccc4)ncc23)ccn1` [Example 571, (R)-1-(7-chloro-3-(2-methylpyridin-4-yl)-1H-pyrazolo[4,3-c]pyridin-6-yl)-3-(1-phenylethyl)urea], the IC50 is 3.07 nM. With `CCCNC(=O)Nc1cc2[nH]nc(-c3ccnc(C)c3)c2cn1` [Example 572], the concentration for half-maximal inhibition (IC50) worked out at 1.62 nM. The figure for `Cc1cc(-c2n[nH]c3cc(NC(=O)NCCO)ncc23)ccn1` [Example 573] is 7.22 nM; for `Cc1cc(-c2n[nH]c3cc(NC(=O)NCC4CCC4)ncc23)ccn1` [Example 574] it is 1.41 nM; for `Cc1cc(-c2n[nH]c3cc(NC(=O)N[C@H](C)C4CCCCC4)ncc23)ccn1` [Example 575] it is 1.2 nM. The figure for `Cc1cc(-c2n[nH]c3cc(NC(=O)N(C)C4CCCCC4)ncc23)ccn1` [Example 576] is 2450 nM. For the compound `Cc1cc(-c2n[nH]c3cc(NC(=O)NC4CCOC4)ncc23)ccn1` (stereo not drawn) [Example 577], the IC50 worked out at 4 nM.

For the compound `Cc1cc(-c2n[nH]c3cc(NC(=O)NCC4CCCCC4)ncc23)ccn1` [Example 578], the IC50 was 0.561 nM. Turning to `Cc1cc(-c2n[nH]c3cc(NC(=O)NC4CCNC4)ncc23)ccn1` (stereo not drawn) [Example 579], the IC50 came out at 10.6 nM. Consider `Cc1cc(-c2n[nH]c3cc(NC(=O)N[C@@H]4COC[C@H]4c4ccccc4)ncc23)ccn1` [Example 580], for which the IC50 amounted to 0.193 nM. To `Cc1cc(-c2n[nH]c3cc(NC(=O)N[C@@H]4CN(C)C[C@H]4c4cccc(Cl)c4)ncc23)ccn1` [Example 581] belongs 0.233 nM. The figure for `Cc1cc(-c2n[nH]c3cc(NC(=O)N[C@@H]4CN(C)C[C@H]4c4ccccc4)ncc23)ccn1` [Example 582] is 0.234 nM.

Regarding `Cc1cc(-c2n[nH]c3cc(NC(=O)N[C@@H]4C[C@H]4c4ccccc4)ncc23)ccn1` [Example 583], the concentration for half-maximal inhibition (IC50) turned out to be 0.917 nM. Consider `Cc1cc(-c2n[nH]c3cc(NC(=O)NCC(C)c4ccccc4)ncc23)ccn1` (stereo not drawn) [Example 584], for which the IC50 came to 0.679 nM. Turning to `COC(C)CNC(=O)Nc1cc2[nH]nc(-c3ccnc(C)c3)c2cn1` (stereo not drawn) [Example 585], the IC50 was 1.26 nM. To `Cc1cc(-c2n[nH]c3cc(NC(=O)NCC4CNC4)ncc23)ccn1` [Example 586] belongs 1.3 nM; to `COC[C@H](NC(=O)Nc1cc2[nH]nc(-c3ccnc(C)c3)c2cn1)c1ccccc1` [Example 587], 12.6 nM. To `Cc1cc(-c2n[nH]c3cc(NC(=O)NCC4COC4)ncc23)ccn1` [Example 588] belongs 30.9 nM; to `C[C@@H](NC(=O)Nc1cc2[nH]nc(-c3cnn(C)c3)c2cn1)C1CCCCC1` [Example 589], 0.823 nM; to `Cn1cc(-c2n[nH]c3cc(NC(=O)NCC4CCC4)ncc23)cn1` [Example 590], 2.06 nM. The figure for `O=C(NCC1CCC1)Nc1cc2[nH]nc(-c3ccnc(F)c3)c2cn1` [Example 591] is 1.54 nM; for `O=C(NCC1CCC1)Nc1cc2[nH]nc(-c3ccc(F)cc3)c2cn1` [Example 592] it is 2.88 nM; for `C[C@@H](NC(=O)Nc1cc2[nH]nc(-c3ccnc(F)c3)c2cn1)C1CCCCC1` [Example 593] it is 3.34 nM. For the compound `C[C@@H](NC(=O)Nc1cc2[nH]nc(-c3ccc(F)cc3)c2cn1)C1CCCCC1` [Example 594], the IC50 amounted to 3.78 nM. Take `Cc1cc(-c2n[nH]c3cc(NC(=O)N[C@H](C)C4CCC4)ncc23)ccn1` [Example 595]: the IC50 turned out to be 3.46 nM. To `Cc1cc(-c2n[nH]c3cc(NC(=O)N[C@@H]4CCN(C)C4)ncc23)ccn1` [Example 596] belongs 4.87 nM.

Turning to `CO[C@@H](C)CNC(=O)Nc1cc2[nH]nc(-c3ccnc(C)c3)c2cn1` [Example 597], the concentration for half-maximal inhibition (IC50) is 0.945 nM. The figure for `CO[C@H](C)CNC(=O)Nc1cc2[nH]nc(-c3ccnc(C)c3)c2cn1` [Example 598] is 1.55 nM.

On to `COCc1n[nH]c2cc(NC(=O)N[C@H](C)c3ccccc3)ncc12` [Example 599], for which the IC50 came out at 7.68 nM.

With `COC[C@H](NC(=O)Nc1cc2[nH]nc(-c3cnn(C)c3)c2cn1)c1ccccc1` [Example 600, 1-[(1R)-2-methoxy-1-phenylethyl]-3-[3-(1-methyl-1H-pyrazol-4-yl)-1H-pyrazolo[4,3-c]pyridin-6-yl]urea], the IC50 was found to be 31.9 nM.

For the compound `COC[C@H](NC(=O)Nc1cc2[nH]nc(-c3ccnc(F)c3)c2cn1)c1ccccc1` [Example 601], the IC50 came out at 20.6 nM. As to `COCCNC(=O)Nc1cc2[nH]nc(-c3ccnc(OC(C)C)c3)c2cn1` [Example 604], the IC50 came to 16.1 nM. To `COC[C@@H](NC(=O)Nc1cc2[nH]nc(-c3ccnc(C4CC4)c3)c2cn1)c1ccccc1` [Example 605] belongs 0.326 nM; to `Cc1cc(-c2n[nH]c3cc(NC(=O)N[C@H](C)Cc4ccccc4)ncc23)ccn1` [Example 606], 3.42 nM. To `COC[C@@H](NC(=O)Nc1cc2[nH]nc(-c3ccc(C#N)cc3)c2cn1)c1ccccc1` [Example 607] belongs 0.335 nM; to `CCNC(=O)Nc1cc2[nH]nc(-c3ccc(F)cc3)c2cn1` [Example 608], 3.81 nM; to `O=C(Nc1cc2[nH]nc(-c3ccc(F)cc3)c2cn1)NC1CCOC1` (stereo not drawn) [Example 609], 5.83 nM. Regarding `COCCNC(=O)Nc1ncc2c(-c3ccnc(C4CC4)c3)n[nH]c2c1F` [Example 610], the half-inhibitory concentration (IC50) amounted to 3.12 nM. For `C[C@@H](NC(=O)Nc1cc2[nH]nc(C(C)(C)O)c2cn1)c1ccccc1` [Example 611], the IC50 stood at 122 nM.

On to `O=C(Nc1cc2[nH]nc(-c3ccc(F)cc3)c2cn1)NC1CCOC1` (stereo not drawn) [Example 612], for which the IC50 amounted to 12.6 nM. To `COC[C@@H](NC(=O)Nc1cc2[nH]nc(-c3ccc4nn(C)cc4c3)c2cn1)c1ccccc1` [Example 613] belongs 0.297 nM; to `COC[C@@H](NC(=O)Nc1cc2[nH]nc(-c3ccc4cn(C)nc4c3)c2cn1)c1ccccc1` [Example 614], 0.481 nM.

For the compound `C[C@@H](NC(=O)Nc1cc2[nH]nc(CO)c2cn1)c1ccccc1` [Example 615], the IC50 stood at 6.16 nM.

`CCOCCNC(=O)Nc1cc2[nH]nc(-c3ccc(F)cc3)c2cn1` [Example 616]: the IC50 turned out to be 0.61 nM. On to `CCOCCNC(=O)Nc1cc2[nH]nc(-c3ccnc(C)c3)c2cn1` [Example 617], for which the half-maximal inhibitory concentration (IC50) amounted to 1.07 nM. The figure for `CC(O)c1n[nH]c2cc(NC(=O)N[C@H](C)c3ccccc3)ncc12` (stereo partly drawn) [Example 618] is 22.8 nM; for `Cc1cc(-c2n[nH]c3cc(NC(=O)NCc4cccc(S(C)(=O)=O)c4)ncc23)ccn1` [Example 619] it is 0.159 nM; for `CCOCc1n[nH]c2cc(NC(=O)N[C@H](C)c3ccccc3)ncc12` [Example 620, 1-[3-(ethoxymethyl)-1H-pyrazolo[4,3-c]pyridin-6-yl]-3-[(1R)-1-phenylethyl]urea] it is 138 nM. To `Cc1cc(-c2n[nH]c3cc(NC(=O)NC[C@H](C)c4ccccc4)ncc23)ccn1` [Example 621] belongs 1.29 nM.

In general, IC50 refers to the concentration needed to halve the response being measured.
